Results taken from patent US8569336B2, “Compounds for the treatment of inflammatory disorders” (priority 2008, dated 2013).
Read-outs that look alike come from different tables or passages of the source.

How the values were obtained:
[1] = molecular target: T1, purified catalytic domain of recombinant human TACE (rhTACEc) (Homo sapiens, UniProt P78536, N452Q/S266A); assay: TACE kinetic assay: cleavage of internally quenched peptide substrate TNF-FRET 2 (Ki); type: biochemical; conditions: TNF-FRET 2 substrate
T1 construct: 6xHis (C); made in house; host or cells: baculovirus/Hi5 insect cells
T1 sequence (P78536 215-477 S266A/N452Q): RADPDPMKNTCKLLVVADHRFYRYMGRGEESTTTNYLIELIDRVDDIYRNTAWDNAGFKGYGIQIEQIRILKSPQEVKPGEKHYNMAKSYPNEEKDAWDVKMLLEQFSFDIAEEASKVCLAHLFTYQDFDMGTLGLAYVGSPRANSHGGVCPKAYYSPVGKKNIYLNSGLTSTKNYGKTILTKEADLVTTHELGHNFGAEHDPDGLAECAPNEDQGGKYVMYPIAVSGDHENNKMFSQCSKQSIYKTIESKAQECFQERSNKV

[2] = system: TNF-α production from human whole blood; assay: Inhibition of TNF-α production from human whole blood (hWBA), LPS stimulated, ELISA; type: cell-based; conditions: Homo sapiens, TNF-α by ELISA, read-out: hWBA (IC50)
[3] = 3.5 h, human whole blood diluted 1:1, LPS stimulated, 3.5 h
[4] = LPS-stimulated human whole blood
[5] = human whole blood diluted 1:1, LPS stimulated

| Ki ([1]; read-out: Ki) [nM] | IC50 [2, 3] [nM] | IC50 [2, 4] [nM] | IC50 [2, 5] [nM] | SMILES | Ki ([1]; Ki) [nM] |
| --- | --- | --- | --- | --- | --- |
| 2.26 | 2990 | – | – | O=C1NC(=O)[C@](CN2Cc3ccc(O)cc3C2=O)(c2cc3cnccc3o2)N1 [Compound 2188] | – |
| 0.36 | 310 | – | – | COc1ccc2c(c1)C(=O)N(C[C@@]1(c3cc4nc(NC(=O)[C@@H](C)O)ccc4o3)NC(=O)NC1=O)C2 [Compound 2137] | – |
| 0.231 | 252 | – | – | COc1ccc2c(c1)C(=O)N(C[C@@]1(c3cc4c(O)nccc4o3)NC(=O)NC1=O)C2 [Compound 2256] | – |
| 2.17 | – | 189 | – | COc1ccc2c(c1)C(=O)N(C[C@@]1(c3cc4nc(NS(C)(=O)=O)ccc4o3)NC(=O)NC1=O)C2 [Compound 1937] | – |
| 1.91 | – | 333 | – | COc1ccc2c(c1)C(=O)N(C[C@@]1(c3cc4nc(Nc5ccc(-c6cn[nH]c6)cn5)ccc4o3)NC(=O)NC1=O)C2 [Compound 1732] | – |
| 0.36 | – | – | 2080 | COc1ccc2c(c1)C(=O)N(C[C@@]1(c3cc4cc(C)c(S(N)(=O)=O)cc4o3)NC(=O)NC1=O)C2 [Compound 2479] | – |
| 1.72 | – | – | 942 | COc1cc2c(cc1F)CN(C[C@@]1(c3cc4cnccc4o3)NC(=O)NC1=O)C2=O [Compound 2311] | – |
| 0.048 | – | 154 | – | CCN1CCCN(c2ccc3oc([C@]4(CN5Cc6ccc(OC)c(F)c6C5=O)NC(=O)NC4=O)cc3n2)CC1 [Compound 1727] | – |
| 0.741 | 1170 | – | – | COc1ccc2c(c1)C(=O)N(C[C@@]1(c3cc4cc(-c5ccncc5)ccc4o3)NC(=O)NC1=O)C2 [Compound 2194] | – |
| 0.6 | – | 1290 | – | COc1ccc2c(c1)C(=O)N(C[C@@]1(c3cc4nc(-c5cnc(N6CCCC6)nc5)ccc4o3)NC(=O)NC1=O)C2 [Compound 1505] | – |
| 2.08 | 1760 | – | – | COc1ccc2c(c1)C(=O)N(C[C@@]1(c3ccc(-c4ccc(C5(CN)NC(=O)NC5=O)cc4)cc3)NC(=O)NC1=O)C2 (stereo partly shown) [Compound 2175] | – |
| 0.85 | 2710 | – | – | COc1ccc2c(c1)C(=O)N(C[C@@]1(c3cc4cc(-c5ccc(N(C)C)nc5)ccc4o3)NC(=O)NC1=O)C2 [Compound 1184] | – |
| 0.356 | 1150 | – | – | COc1ccc2c(c1)C(=O)N(C[C@@]1(c3cc4c(-c5ccccc5F)nccc4o3)NC(=O)NC1=O)C2 [Compound 2237] | – |
| 1.08 | – | 218 | – | COc1ccc2c(c1F)C(=O)N(C[C@@]1(c3cc4nc(N5CCN(C)CC5)c(F)cc4o3)NC(=O)NC1=O)C2 [Compound 1710] | – |
| 2.13 | – | 704 | – | CCOC(=O)N1CCc2cc([C@]3(CN4Cc5ccc(OC)cc5C4=O)NC(=O)NC3=O)oc2C1 [Compound 317] | – |
| 0.61 | – | 132 | – | COc1ccc2c(c1F)C(=O)N(C[C@@]1(c3cc4nc(C(N)=O)ccc4o3)NC(=O)NC1=O)C2 [Compound 1904] | – |
| 0.52 | – | 841 | – | COC(=O)c1cnc2cc([C@]3(CN4Cc5ccc(OC)cc5C4=O)NC(=O)NC3=O)oc2c1 [Compound 1928] | – |
| 1.32 | – | 317 | – | COc1ccc2c(c1)C(=O)N(C[C@@]1(c3cc4nc(C(=O)NC5CCN(C)CC5)ccc4o3)NC(=O)NC1=O)C2 [Compound 1911] | – |
| 0.45 | 1050 | – | – | COC(=O)c1cc2cc([C@]3(CN4Cc5ccc(OC)cc5C4=O)NC(=O)NC3=O)oc2cc1F [Compound 1271] | – |
| 2.5 | – | ≥ 100000 | – | COc1ccc2c(c1)C(=O)N(C[C@]1(C3=CC(c4ccccc4)N(C)O3)NC(=O)NC1=O)C2 (stereo partly shown) [Compound 1526] | – |
| 0.81 | – | 308 | – | CCNc1nnc(-c2ccc3oc([C@]4(CN5Cc6ccc(OC)c(F)c6C5=O)NC(=O)NC4=O)cc3n2)o1 [Compound 1916] | – |
| 0.347 | 515 | – | – | COc1ccc2c(c1)C(=O)N(C[C@@]1(c3cc4cc(-c5c(N)noc5C)ccc4o3)NC(=O)NC1=O)C2 [Compound 2261] | – |

| SMILES | Ki ([1]; read-out: Ki) [nM] | IC50 [2, 3] [nM] | IC50 [2, 4] [nM] | IC50 [2, 5] [nM] | Ki ([1]; Ki) [nM] |
| --- | --- | --- | --- | --- | --- |
| COc1ccc2c(c1)C(=O)N(CC1(c3cc4cc(-c5cc(=O)[nH]c(N)n5)ccc4o3)NC(=O)NC1=O)C2 (stereo not shown) [Compound 2224] | – | 139 | – | – | 0.313 |
